Data taken from ChEMBL document CHEMBL5678818, “Discovery of potent SOS1 inhibitors that block RAS activation via disruption of the RAS-SOS1 interaction” (Proc Natl Acad Sci U S A, 2019).

Legend:
[1] = target: T1, Phosphatidylinositol 4,5-bisphosphate 3-kinase catalytic subunit delta isoform (Homo sapiens) (UniProt O00329); test: Inhibition of PIK3CD (unknown origin) assessed as residual activity at 1000 nM by KINOMEscan analysis relative to control
T1 sequence (whole entry): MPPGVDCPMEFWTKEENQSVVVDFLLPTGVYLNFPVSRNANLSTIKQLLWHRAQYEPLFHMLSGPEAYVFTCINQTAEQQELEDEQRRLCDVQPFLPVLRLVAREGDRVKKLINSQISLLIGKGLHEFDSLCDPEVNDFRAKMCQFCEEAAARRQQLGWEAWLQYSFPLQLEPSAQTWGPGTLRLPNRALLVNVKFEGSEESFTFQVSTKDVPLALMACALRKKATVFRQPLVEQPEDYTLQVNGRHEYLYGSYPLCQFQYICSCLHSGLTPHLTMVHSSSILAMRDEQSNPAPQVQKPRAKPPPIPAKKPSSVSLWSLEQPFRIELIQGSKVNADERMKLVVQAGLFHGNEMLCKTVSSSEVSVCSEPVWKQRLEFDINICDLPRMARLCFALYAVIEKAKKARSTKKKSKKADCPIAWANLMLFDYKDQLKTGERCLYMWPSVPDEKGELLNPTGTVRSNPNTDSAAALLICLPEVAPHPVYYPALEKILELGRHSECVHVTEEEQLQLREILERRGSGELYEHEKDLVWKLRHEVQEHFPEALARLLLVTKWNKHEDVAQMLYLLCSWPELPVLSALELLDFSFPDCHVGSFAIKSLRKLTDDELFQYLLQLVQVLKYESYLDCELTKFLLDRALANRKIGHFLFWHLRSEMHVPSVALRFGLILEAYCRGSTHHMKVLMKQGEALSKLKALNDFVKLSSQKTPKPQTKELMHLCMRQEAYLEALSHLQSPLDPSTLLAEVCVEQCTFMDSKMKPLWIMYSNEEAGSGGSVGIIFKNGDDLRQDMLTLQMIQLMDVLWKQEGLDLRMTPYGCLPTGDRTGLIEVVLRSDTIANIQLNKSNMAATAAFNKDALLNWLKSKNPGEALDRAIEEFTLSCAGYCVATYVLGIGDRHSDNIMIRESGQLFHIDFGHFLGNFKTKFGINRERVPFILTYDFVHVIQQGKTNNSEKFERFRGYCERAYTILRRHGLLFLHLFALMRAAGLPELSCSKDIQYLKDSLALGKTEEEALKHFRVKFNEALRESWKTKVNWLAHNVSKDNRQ

[2] = target: T2, Serine/threonine-protein kinase 3 (Homo sapiens) (UniProt Q13188); test: Inhibition of MST2 (unknown origin) assessed as residual activity at 1000 nM by KINOMEscan analysis relative to control
T2 sequence (whole entry): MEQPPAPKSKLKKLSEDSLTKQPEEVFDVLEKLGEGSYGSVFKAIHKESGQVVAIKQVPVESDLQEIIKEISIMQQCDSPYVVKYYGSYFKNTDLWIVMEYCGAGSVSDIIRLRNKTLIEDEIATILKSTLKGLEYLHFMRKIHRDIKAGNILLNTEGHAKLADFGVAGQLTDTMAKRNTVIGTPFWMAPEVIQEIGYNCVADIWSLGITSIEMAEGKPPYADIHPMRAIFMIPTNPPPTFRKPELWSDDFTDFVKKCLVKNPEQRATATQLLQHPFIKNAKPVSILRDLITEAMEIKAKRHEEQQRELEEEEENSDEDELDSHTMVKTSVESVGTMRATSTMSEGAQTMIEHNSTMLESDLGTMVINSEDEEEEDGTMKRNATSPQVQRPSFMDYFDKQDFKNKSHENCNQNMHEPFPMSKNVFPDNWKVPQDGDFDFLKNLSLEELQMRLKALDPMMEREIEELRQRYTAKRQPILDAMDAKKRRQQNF

[3] = target: T3, Serine/threonine-protein kinase TNNI3K (Homo sapiens) (UniProt Q59H18); test: Inhibition of TNNI3K (unknown origin) assessed as residual activity at 1000 nM by KINOMEscan analysis relative to control
T3 sequence (whole entry): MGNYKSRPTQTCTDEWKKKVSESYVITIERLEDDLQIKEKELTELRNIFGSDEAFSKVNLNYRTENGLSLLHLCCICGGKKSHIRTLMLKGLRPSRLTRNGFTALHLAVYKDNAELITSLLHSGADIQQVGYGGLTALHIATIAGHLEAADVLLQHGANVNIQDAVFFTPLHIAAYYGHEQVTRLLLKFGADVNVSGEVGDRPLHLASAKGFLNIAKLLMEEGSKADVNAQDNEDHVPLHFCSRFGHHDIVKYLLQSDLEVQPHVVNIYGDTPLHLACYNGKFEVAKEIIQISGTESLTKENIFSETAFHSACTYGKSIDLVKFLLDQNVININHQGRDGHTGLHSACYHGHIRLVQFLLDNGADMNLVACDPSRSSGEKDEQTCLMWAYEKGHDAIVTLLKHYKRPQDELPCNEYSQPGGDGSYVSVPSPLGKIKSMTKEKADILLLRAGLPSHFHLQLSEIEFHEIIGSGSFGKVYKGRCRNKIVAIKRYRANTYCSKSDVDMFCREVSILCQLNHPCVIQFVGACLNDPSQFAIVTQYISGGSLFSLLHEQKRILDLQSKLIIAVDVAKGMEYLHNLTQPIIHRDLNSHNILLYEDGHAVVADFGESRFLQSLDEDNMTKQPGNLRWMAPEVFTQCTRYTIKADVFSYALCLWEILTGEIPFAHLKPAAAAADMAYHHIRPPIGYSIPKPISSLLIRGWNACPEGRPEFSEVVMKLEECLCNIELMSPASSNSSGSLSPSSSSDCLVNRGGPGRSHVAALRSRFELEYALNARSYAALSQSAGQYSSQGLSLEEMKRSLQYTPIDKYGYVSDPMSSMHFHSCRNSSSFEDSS

[4] = target: Vascular endothelial growth factor receptor 1 (Homo sapiens) (UniProt P17948); test: Inhibition of FLT1 (unknown origin) assessed as residual activity at 1000 nM by KINOMEscan analysis relative to control
[5] = test system: Tyrosine-protein kinase ABL1 (Homo sapiens), P00519 [Y253F]; test: Inhibition of phosphorylated ABL1 Y253F mutant (unknown origin) assessed as residual activity at 1000 nM by KINOMEscan analysis relative to control
[6] = target: Hepatocyte growth factor receptor (Homo sapiens) (UniProt P08581); test: Inhibition of MET (unknown origin) assessed as residual activity at 1000 nM by KINOMEscan analysis relative to control
[7] = target: Tyrosine-protein kinase SYK (Homo sapiens) (UniProt P43405); test: Inhibition of SYK (unknown origin) assessed as residual activity at 1000 nM by KINOMEscan analysis relative to control
[8] = test system: Phosphatidylinositol 4,5-bisphosphate 3-kinase catalytic subunit alpha isoform (Homo sapiens), P42336 [H1047L]; test: Inhibition of PIK3CA H1047L mutant (unknown origin) assessed as residual activity at 1000 nM by KINOMEscan analysis relative to control
[9] = target: Serine/threonine-protein kinase Nek6 (Homo sapiens) (UniProt Q9HC98); test: Inhibition of NEK6 (unknown origin) assessed as residual activity at 1000 nM by KINOMEscan analysis relative to control
Sequence of Serine/threonine-protein kinase Nek6 (Homo sapiens) (Q9HC98 whole entry): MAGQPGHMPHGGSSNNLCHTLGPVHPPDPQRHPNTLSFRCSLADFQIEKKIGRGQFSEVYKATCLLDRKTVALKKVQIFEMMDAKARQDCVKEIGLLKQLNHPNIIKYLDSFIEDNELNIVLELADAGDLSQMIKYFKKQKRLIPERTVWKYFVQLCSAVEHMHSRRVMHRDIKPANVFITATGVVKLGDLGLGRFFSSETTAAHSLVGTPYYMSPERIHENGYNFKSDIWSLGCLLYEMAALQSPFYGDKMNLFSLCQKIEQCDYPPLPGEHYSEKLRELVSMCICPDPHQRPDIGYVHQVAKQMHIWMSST

Sequence of Vascular endothelial growth factor receptor 1 (Homo sapiens) (P17948 whole entry): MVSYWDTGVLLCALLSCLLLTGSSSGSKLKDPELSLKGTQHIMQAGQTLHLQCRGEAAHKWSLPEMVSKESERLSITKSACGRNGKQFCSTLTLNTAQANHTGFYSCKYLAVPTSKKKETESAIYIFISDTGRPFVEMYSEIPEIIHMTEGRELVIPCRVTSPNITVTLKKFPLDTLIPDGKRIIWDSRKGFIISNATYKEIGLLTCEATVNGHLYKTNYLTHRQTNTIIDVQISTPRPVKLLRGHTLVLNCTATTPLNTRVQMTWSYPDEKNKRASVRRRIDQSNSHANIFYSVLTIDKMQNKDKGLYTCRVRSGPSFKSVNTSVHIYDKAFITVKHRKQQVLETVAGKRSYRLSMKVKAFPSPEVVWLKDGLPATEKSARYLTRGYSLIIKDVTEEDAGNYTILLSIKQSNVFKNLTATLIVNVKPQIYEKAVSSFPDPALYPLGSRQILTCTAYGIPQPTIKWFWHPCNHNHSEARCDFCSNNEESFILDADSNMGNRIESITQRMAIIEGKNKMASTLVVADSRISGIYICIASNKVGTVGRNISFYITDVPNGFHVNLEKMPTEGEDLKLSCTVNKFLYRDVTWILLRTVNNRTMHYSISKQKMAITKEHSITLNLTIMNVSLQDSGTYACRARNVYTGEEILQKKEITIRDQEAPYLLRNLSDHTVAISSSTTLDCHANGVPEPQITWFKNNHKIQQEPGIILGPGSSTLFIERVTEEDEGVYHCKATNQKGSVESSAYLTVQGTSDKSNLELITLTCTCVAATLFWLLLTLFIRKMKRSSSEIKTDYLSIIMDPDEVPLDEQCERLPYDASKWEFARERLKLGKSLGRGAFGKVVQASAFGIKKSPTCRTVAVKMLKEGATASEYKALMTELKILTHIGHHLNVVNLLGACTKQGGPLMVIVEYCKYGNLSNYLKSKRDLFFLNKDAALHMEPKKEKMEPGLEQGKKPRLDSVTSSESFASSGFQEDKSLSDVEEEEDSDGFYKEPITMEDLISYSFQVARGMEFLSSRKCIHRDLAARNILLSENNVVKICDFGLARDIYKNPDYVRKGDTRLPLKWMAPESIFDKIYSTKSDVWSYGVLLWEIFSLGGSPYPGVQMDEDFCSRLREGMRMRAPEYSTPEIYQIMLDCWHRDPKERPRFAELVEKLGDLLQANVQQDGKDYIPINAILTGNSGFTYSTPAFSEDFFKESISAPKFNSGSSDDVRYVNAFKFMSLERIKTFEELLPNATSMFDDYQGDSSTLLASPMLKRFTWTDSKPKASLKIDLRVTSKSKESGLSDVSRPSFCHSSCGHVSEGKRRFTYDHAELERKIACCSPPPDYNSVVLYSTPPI
Sequence of Hepatocyte growth factor receptor (Homo sapiens) (P08581 whole entry): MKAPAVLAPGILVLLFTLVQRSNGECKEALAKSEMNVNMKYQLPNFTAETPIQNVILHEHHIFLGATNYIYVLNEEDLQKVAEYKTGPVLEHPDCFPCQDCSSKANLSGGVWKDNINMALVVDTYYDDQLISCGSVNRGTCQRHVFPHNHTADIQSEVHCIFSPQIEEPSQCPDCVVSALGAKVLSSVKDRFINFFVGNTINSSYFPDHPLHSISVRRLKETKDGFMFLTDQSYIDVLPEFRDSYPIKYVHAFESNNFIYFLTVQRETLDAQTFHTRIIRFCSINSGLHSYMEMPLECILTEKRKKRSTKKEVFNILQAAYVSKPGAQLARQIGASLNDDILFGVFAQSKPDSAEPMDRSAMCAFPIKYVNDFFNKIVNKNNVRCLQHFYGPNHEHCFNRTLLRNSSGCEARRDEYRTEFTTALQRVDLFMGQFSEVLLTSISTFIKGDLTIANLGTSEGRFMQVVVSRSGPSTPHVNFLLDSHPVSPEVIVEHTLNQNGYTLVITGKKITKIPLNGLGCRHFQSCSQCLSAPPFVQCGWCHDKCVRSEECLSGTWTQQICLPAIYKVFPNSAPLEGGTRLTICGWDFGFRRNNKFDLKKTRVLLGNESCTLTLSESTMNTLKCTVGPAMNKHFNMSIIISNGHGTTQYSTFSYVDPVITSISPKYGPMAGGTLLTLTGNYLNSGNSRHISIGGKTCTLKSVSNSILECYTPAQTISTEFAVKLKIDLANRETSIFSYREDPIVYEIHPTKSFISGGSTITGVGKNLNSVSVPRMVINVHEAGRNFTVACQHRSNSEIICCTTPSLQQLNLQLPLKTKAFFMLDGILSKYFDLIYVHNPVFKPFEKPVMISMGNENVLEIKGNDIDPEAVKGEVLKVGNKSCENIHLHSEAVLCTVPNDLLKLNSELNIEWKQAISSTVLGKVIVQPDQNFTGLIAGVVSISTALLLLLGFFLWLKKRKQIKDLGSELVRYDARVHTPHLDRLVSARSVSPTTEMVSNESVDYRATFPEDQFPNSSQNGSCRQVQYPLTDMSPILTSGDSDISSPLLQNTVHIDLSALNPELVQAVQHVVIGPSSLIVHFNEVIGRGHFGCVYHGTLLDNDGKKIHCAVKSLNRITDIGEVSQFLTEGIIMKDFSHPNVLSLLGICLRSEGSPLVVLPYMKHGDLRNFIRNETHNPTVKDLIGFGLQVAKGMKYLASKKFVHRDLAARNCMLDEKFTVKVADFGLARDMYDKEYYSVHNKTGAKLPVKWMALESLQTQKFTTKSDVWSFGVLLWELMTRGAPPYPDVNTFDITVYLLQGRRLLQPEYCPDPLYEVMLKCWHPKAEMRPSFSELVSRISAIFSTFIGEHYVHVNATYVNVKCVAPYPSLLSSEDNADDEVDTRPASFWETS
Sequence of Phosphatidylinositol 4,5-bisphosphate 3-kinase catalytic subunit alpha isoform (Homo sapiens), P42336 [H1047L] (P42336 whole entry H1047L, canonical isoform): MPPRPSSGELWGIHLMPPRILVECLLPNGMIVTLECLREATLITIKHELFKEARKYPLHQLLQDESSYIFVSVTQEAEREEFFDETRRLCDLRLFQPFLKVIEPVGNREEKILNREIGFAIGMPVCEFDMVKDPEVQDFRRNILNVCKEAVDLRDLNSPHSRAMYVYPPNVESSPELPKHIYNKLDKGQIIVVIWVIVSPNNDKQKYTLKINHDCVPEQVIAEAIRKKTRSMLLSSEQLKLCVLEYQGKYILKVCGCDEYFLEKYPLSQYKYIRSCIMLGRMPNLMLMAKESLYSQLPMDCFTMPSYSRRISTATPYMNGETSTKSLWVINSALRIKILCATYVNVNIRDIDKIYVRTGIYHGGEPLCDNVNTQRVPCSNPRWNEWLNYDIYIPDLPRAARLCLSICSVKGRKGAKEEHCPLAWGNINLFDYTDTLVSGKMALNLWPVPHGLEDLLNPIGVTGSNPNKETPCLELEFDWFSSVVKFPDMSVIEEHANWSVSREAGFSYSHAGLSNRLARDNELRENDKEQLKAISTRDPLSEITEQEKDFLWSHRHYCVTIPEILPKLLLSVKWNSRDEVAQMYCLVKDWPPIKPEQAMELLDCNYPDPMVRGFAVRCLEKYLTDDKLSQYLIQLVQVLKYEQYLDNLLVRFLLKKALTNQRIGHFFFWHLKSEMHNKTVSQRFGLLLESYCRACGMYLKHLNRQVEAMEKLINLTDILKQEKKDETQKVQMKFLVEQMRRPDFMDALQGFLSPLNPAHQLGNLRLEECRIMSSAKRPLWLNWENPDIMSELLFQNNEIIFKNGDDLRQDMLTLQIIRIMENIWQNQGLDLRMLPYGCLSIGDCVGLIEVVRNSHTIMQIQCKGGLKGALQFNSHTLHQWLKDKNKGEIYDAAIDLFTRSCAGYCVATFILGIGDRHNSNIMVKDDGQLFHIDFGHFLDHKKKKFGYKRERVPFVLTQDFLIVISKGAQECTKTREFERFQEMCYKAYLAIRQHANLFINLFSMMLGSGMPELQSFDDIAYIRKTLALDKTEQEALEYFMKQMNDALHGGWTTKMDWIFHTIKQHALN

SMILES | Activity [1] [%] | Activity [2] [%] | Activity [3] [%] | Activity [4] [%] | Activity [5] [%] | Activity [6] [%] | Activity [7] [%] | Activity [8] [%] | Activity [9] [%]
COc1cc2nc(C)nc(N[C@H](C)c3cccc(-c4cn[nH]c4)c3)c2cc1OC | 96 | 79 | 96 | 71 | 92 | 97 | 76 | 96 | 93
COc1cc2ncnc(N[C@H](C)c3cccc4ccccc34)c2cc1OC | 68 | 96 | 100 | 96 | 79 | 100 | 100 | 92 | 97
